Test results as given in patent US8293786B2 (Alltranz Inc., priority 2007, dated 2012).

What was measured:
human abdominal skin = assay: In vitro human skin permeation and skin disposition, flow-through diffusion cells (Examples 2, 2A, 2B); assay type: in vitro ADME; details: for 30 h skin conc: Table 17, 40% aqueous PEG 400 receiver fluid
Outline: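 Dermatomed (~200 μm) frozen human abdominal skin was mounted in flow-through cells at 32° C (0.95 cm^2), stratum corneum to donor. Donors were 0.10 mL 45:4:1 PG:H2O:IPM solution or 50 μL gel; receiver was 40% PEG 400 (HEPES-Hanks pH 7.4 or aqueous) with gentamicin at 0.8 mL/h. Samples were taken every 3 h for 24-42 h; skin accumulation was expressed as μmol/g wet tissue.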

[1] = Plasma stability of cannabidiol prodrugs (bioconversion to parent drug); assay type: in vitro ADME; details: Table 20, mono-prodrug in plasma
Description: An approximated 1 mg/mL stock solution of each prodrug was prepared in 100 μL of ethanol and 900 μL of acetonitrile. Ten (10) μL of stock was spiked into 1 mL of plasma and vortexed. The samples were kept sealed in an amber vial and samples were obtained to analyze for bioconversion to parent drug.

[2] = Table 16, 90:8:2 PG:H2O:IPM donor solution, 60/40 Hanks'/PEG 400 receiver fluid, CBD from applied prodrug
[3] = Table 16, 90:8:2 PG:H2O:IPM donor solution, 60/40 Hanks'/PEG 400 receiver fluid, as applied compound (CBD or intact prodrug)
[4] = Table 16, 90:8:2 PG:H2O:IPM donor solution, 60/40 Hanks'/PEG 400 receiver fluid, prodrug applied, as total cannabidiol equivalents

For `C=C(C)[C@@H]1CCC(C)=C[C@H]1c1c(O)cc(CCCCC)cc1OC(=O)[C@@H](O)CO` [ALL00137, CBD (S)-2,3-dihydroxypropanoate], which “30 h skin conc” value (human abdominal skin; 90:8:2 PG:H2O:IPM donor solution, CBD from applied prodrug) is on record?
The value was 0.3 ± 0.0 µmol/g.

What about the “30 h skin conc” value (human abdominal skin; 90:8:2 PG:H2O:IPM donor solution, as applied compound (CBD or intact prodrug)) of the same compound?
Its value is 0.9 ± 0.3 µmol/g.

What about the “30 h skin conc” value (human abdominal skin; 90:8:2 PG:H2O:IPM donor solution, prodrug applied, as total cannabidiol equivalents) of the same compound?
The value was 1.0 ± 0.5 µmol/g.

And the “detected in the skin as” value (human abdominal skin; in donor solution)?
Its value is “prodrug and trace amounts of cannabidiol”.

What about the “permeated through the skin as” value (human abdominal skin; in donor solution) of the same compound?
The value was “did not permeate through the skin or was below detection in the receiver samples”.

And the “total skin concentrations compared to cannabidiol” value (human abdominal skin; in donor solution)?
Its value is “not higher”.

And the “% Prodrug at time (h)” value ([1]; 0 h)?
Its value is 89%.

What about the “% Prodrug at time (h)” value ([1]; 1 h) of the same compound?
Its value is 73%.

What about the “% Prodrug at time (h)” value ([1]; 3 h) of the same compound?
The value was 60%.

And the “% Prodrug at time (h)” value ([1]; 24 h)?
Its value is 4%.

Which results are given for `C=C(C)[C@@H]1CCC(C)=C[C@H]1c1c(O)cc(CCCCC)cc1OC(=O)COCCOCCOCCOC` [ALL00131, CBD 3,6,9,12-tetraoxatridecanoate]?
42 h cumulative amt (human abdominal skin; [2]): 15.4 ± 2.0 nmol; Flux (human abdominal skin; [2]): 0.6 ± 0.1 nmol/cm^2/h; Lag time (human abdominal skin; [2]): 9.6 ± 3.0 h; 42 h cumulative amt (human abdominal skin; [3]): 54.9 ± 22.1 nmol; 42 h skin conc (human abdominal skin; [3]): 12.5 ± 5.5 µmol/g; Flux (human abdominal skin; [3]): 2.3 ± 0.8 nmol/cm^2/h; Lag time (human abdominal skin; [3]): 13.7 ± 1.9 h; 42 h cumulative amt (human abdominal skin; [4]): 70.3 ± 20.4 nmol; 42 h skin conc (human abdominal skin; [4]): 12.5 ± 5.5 µmol/g; Flux (human abdominal skin; [4]): 2.8 ± 0.7 nmol/cm^2/h; Lag time (human abdominal skin; [4]): 12.9 ± 1.6 h; Flux enhancement (human abdominal skin; Table 16, 90:8:2 PG:H2O:IPM donor solution, 60/40 Hanks'/PEG 400 receiver fluid, total cannabidiol versus cannabidiol): 0.43; detected in the skin as (human abdominal skin; in donor solution): only as prodrug; flux compared to cannabidiol (human abdominal skin; in donor solution): did not increase the flux; lag time compared to cannabidiol (human abdominal skin; in donor solution): similar; permeated through the skin as (human abdominal skin; in donor solution): intact prodrug and cannabidiol; total skin concentrations compared to cannabidiol (human abdominal skin; in donor solution): not higher; % Prodrug at time (h) ([1]; 0 h): 100%; % Prodrug at time (h) ([1]; 1 h): 64%; % Prodrug at time (h) ([1]; 2 h): 42%; % Prodrug at time (h) ([1]; 4 h): 24%; % Prodrug at time (h) ([1]; 6 h): 14%; % Prodrug at time (h) ([1]; 24 h): 14%
